Holding throughout (type): functional
Assay [1] relates to Mycobacterium tuberculosis. The experiment in a line: Antitubercular activity against Mycobacterium tuberculosis H37Rv assessed as growth inhibition by BACTEC MGIT method.
Assay [2] has as its system Staphylococcus aureus. The assay is described as follows: Antibacterial activity against Staphylococcus aureus MTCC 96 assessed as growth inhibition by agar streak dilution method.
Assay [3] deals with Klebsiella pneumoniae. The experiment in a line: Antibacterial activity against Klebsiella pneumoniae MTCC 109 assessed as growth inhibition by agar streak dilution method.
Assay [4] relates to Bacillus cereus. The experiment in a line: Antibacterial activity against Bacillus cereus MTCC 430 assessed as growth inhibition by agar streak dilution method.
In assay [5] the test system is Aspergillus fumigatus. The experiment in a line: Antifungal activity against Aspergillus fumigatus MTCC 343 assessed as growth inhibition by agar streak dilution method.
The subject of assay [6] is Pseudomonas aeruginosa. The assay is described as follows: Antibacterial activity against Pseudomonas aeruginosa MTCC 741 assessed as growth inhibition by agar streak dilution method.
Assay [7] has as its system Candida albicans. The experiment in a line: Antifungal activity against Candida albicans MTCC 183 assessed as growth inhibition by agar streak dilution method.
In assay [8] the test system is Aspergillus niger. The experiment in a line: Antifungal activity against Aspergillus niger MTCC 282 assessed as growth inhibition by agar streak dilution method.
The subject of assay [9] is Aspergillus clavatus. The experiment in a line: Antifungal activity against Aspergillus clavatus MTCC 1323 assessed as growth inhibition by agar streak dilution method.
In assay [10] the test system is Escherichia coli. The assay is described as follows: Antibacterial activity against Escherichia coli MTCC 739 assessed as growth inhibition by agar streak dilution method.
Assay [11] has as its system Mycobacterium tuberculosis. The experiment in a line: Antitubercular activity against Mycobacterium tuberculosis H37Rv assessed as growth inhibition at MIC by Lowenstein-Jensen method.
Assay [12] deals with Salmonella typhi. The experiment in a line: Antibacterial activity against Salmonella enterica subsp. enterica serovar Typhi MTCC 733 assessed as growth inhibition by agar streak dilution method.
The test system of assay [13] is Mycobacterium tuberculosis. The experiment in a line: Antitubercular activity against Mycobacterium tuberculosis H37Rv assessed as growth inhibition by Lowenstein-Jensen method.
For assay [14], the system named is Proteus vulgaris. The assay is described as follows: Antibacterial activity against Proteus vulgaris MTCC 1771 assessed as growth inhibition by agar streak dilution method.
Assay [15] concerns Shigella flexneri. The experiment in a line: Antibacterial activity against Shigella flexneri MTCC 1457 assessed as growth inhibition by agar streak dilution method.

≈ marks a conversion by molar mass, not a printed value.

As a reminder, the MIC is the lowest concentration found to suppress growth. `O=C(CSc1nnc(-c2cc3ccccc3oc2=O)o1)Nc1nc2ccccc2s1`: the MIC was greater than 6.25 µg/mL in [1]; 100 µg/mL (≈ 229 µM) in [2]; greater than 100 µg/mL in assay [3]; 100 µg/mL (≈ 229 µM) in assay [4]; greater than 100 µg/mL in assay [5]; 50 µg/mL (≈ 115 µM) in assay [6]. The MIC in [7] was greater than 100 µg/mL; in assay [8] it was greater than 100 µg/mL; in assay [9], greater than 100 µg/mL; in [10] it was greater than 100 µg/mL; in [12] it was 100 µg/mL (≈ 229 µM); in [13], 500 µg/mL (≈ 1150 µM). In addition, the MIC in assay [14] and in assay [15] was 100 µg/mL (≈ 229 µM) each time. Also, the “growth inhibition (GI)” value in [11] is recorded as 95%.

As for `O=C(CSc1nnc(-c2cc3ccccc3oc2=O)o1)Nc1nc2ccc(I)cc2s1`, the minimum inhibitory concentration (MIC) in assay [1] is greater than 6.25 µg/mL; in [2], 100 µg/mL (≈ 178 µM); in [3] it was 100 µg/mL (≈ 178 µM); in [4] it was 100 µg/mL (≈ 178 µM); in assay [5], 100 µg/mL (≈ 178 µM); in [6], greater than 100 µg/mL. Further, the MIC in assay [7] came to 100 µg/mL (≈ 178 µM); in [8], 100 µg/mL (≈ 178 µM); in [9] it was 100 µg/mL (≈ 178 µM); in [10], 50 µg/mL (≈ 88.9 µM); in assay [12] it was 100 µg/mL (≈ 178 µM); in assay [13], 100 µg/mL (≈ 178 µM). Besides, the figures for the minimum inhibitory concentration (MIC) in [14] and in assay [15] were greater than 100 µg/mL and 100 µg/mL (≈ 178 µM), respectively. Moreover, the “growth inhibition (GI)” value in [11] is on record as 97%.

Take `Cc1ccc(NC(=O)CSc2nnc(-c3cc4ccccc4oc3=O)o2)cc1`: the MIC in assay [1] was greater than 6.25 µg/mL; in [2], 100 µg/mL (≈ 254 µM); in assay [3], greater than 100 µg/mL; in [4], 50 µg/mL (≈ 127 µM); in assay [5] it was greater than 100 µg/mL; in assay [6] it was greater than 100 µg/mL. In addition, the MIC in assay [7] was greater than 100 µg/mL; in assay [8], 100 µg/mL (≈ 254 µM); in [9], 100 µg/mL (≈ 254 µM); in [10], greater than 100 µg/mL; in assay [12], 100 µg/mL (≈ 254 µM); in [13] it was 500 µg/mL (≈ 1270 µM). Moreover, the MIC in [14] and in assay [15] was greater than 100 µg/mL throughout. Moreover, in assay [11], the “growth inhibition (GI)” value worked out at 94%.

With `Cc1ccc2nc(NC(=O)CSc3nnc(-c4cc5ccccc5oc4=O)o3)sc2c1`, the minimum inhibitory concentration (MIC) is greater than 6.25 µg/mL in [1]; 100 µg/mL (≈ 222 µM) in assay [2]; 100 µg/mL (≈ 222 µM) in assay [3]; 100 µg/mL (≈ 222 µM) in assay [4]; greater than 100 µg/mL in [5]; 100 µg/mL (≈ 222 µM) in [6]. In addition, the MIC in [7] is 100 µg/mL (≈ 222 µM); in assay [8] it was greater than 100 µg/mL; in [9], 100 µg/mL (≈ 222 µM); in assay [10], greater than 100 µg/mL; in [12] it was 100 µg/mL (≈ 222 µM); in [13], 200 µg/mL (≈ 444 µM). In addition, the minimal inhibitory concentration (MIC) in [14] was 100 µg/mL (≈ 222 µM); in assay [15], greater than 100 µg/mL. Besides, the “growth inhibition (GI)” value in assay [11] was determined as 95%.

For `CCOc1ccc2nc(NC(=O)CSc3nnc(-c4cc5ccccc5oc4=O)o3)sc2c1`, the minimum inhibitory concentration (MIC) was greater than 6.25 µg/mL in assay [1]; 12.5 µg/mL (≈ 26 µM) in assay [2]; 100 µg/mL (≈ 208 µM) in assay [3]; 25 µg/mL (≈ 52 µM) in assay [4]; 100 µg/mL (≈ 208 µM) in [5]; 6.25 µg/mL (≈ 13 µM) in assay [6]. The minimum inhibitory concentration (MIC) in assay [7] is 100 µg/mL (≈ 208 µM); in assay [8], 100 µg/mL (≈ 208 µM); in assay [9], 50 µg/mL (≈ 104 µM); in assay [10], 50 µg/mL (≈ 104 µM); in [12] it was 12.5 µg/mL (≈ 26 µM); in assay [13] it was 50 µg/mL (≈ 104 µM). The minimum inhibitory concentration (MIC) in assay [14] and in assay [15] was 100 µg/mL (≈ 208 µM) each time. In addition, the “growth inhibition (GI)” value in assay [11] came out at 97%.

As to `COc1ccc2nc(NC(=O)CSc3nnc(-c4cc5ccccc5oc4=O)o3)sc2c1`, the minimal inhibitory concentration (MIC) is greater than 6.25 µg/mL in assay [1]; 25 µg/mL (≈ 53.6 µM) in [2]; 100 µg/mL (≈ 214 µM) in [3]; 50 µg/mL (≈ 107 µM) in [4]; 100 µg/mL (≈ 214 µM) in assay [5]; 50 µg/mL (≈ 107 µM) in assay [6]. Besides, the MIC in assay [7] was 50 µg/mL (≈ 107 µM); in [8], 50 µg/mL (≈ 107 µM); in assay [9], 25 µg/mL (≈ 53.6 µM); in [10] it was 100 µg/mL (≈ 214 µM); in [12], 25 µg/mL (≈ 53.6 µM); in assay [13], 25 µg/mL (≈ 53.6 µM). Besides, the minimum inhibitory concentration (MIC) in [14] came out at 25 µg/mL (≈ 53.6 µM); in [15], 50 µg/mL (≈ 107 µM). Further, in assay [11], the “growth inhibition (GI)” value is listed as 98%.

For `O=C(CSc1nnc(-c2cc3ccccc3oc2=O)o1)Nc1nc2ccc(F)cc2s1`, the MIC in assay [1] is greater than 6.25 µg/mL; in [2], 12.5 µg/mL (≈ 27.5 µM); in [3], 100 µg/mL (≈ 220 µM); in [4], 12.5 µg/mL (≈ 27.5 µM); in assay [5] it was 25 µg/mL (≈ 55 µM); in assay [6], 50 µg/mL (≈ 110 µM). The minimum inhibitory concentration (MIC) in [7] worked out at 50 µg/mL (≈ 110 µM); in assay [8] it was 12.5 µg/mL (≈ 27.5 µM); in [9] it was 50 µg/mL (≈ 110 µM); in [10], 50 µg/mL (≈ 110 µM); in [12], 50 µg/mL (≈ 110 µM); in assay [13] it was 50 µg/mL (≈ 110 µM). Besides, the MIC in assay [14] was 100 µg/mL (≈ 220 µM); in assay [15], 25 µg/mL (≈ 55 µM). Besides, the “growth inhibition (GI)” value in assay [11] was found to be 98%.

The values are drawn from ChEMBL document CHEMBL3044664, “Synthesis of coumarin-based 1,3,4-oxadiazol-2ylthio-N-phenyl/benzothiazolyl acetamides as antimicrobial and antituberculosis agents” (2013).
